Assay results reported in patent publication US20050153943A1, “Methods of simultaneously treating mucositis and fungal infection” (priority 2002, published 2005).
Values after ≈ are worked out from the molar mass of the structure shown. Read-outs that look alike come from different tables or passages of the source. Blank lines part the entries; values can stand above or below the compound they belong to.

Key:
[1] = system: BALB/c 3T3 (CCL-163) cells; assay: 3T3 phototoxicity assay (Neutral Red uptake, with/without UVA); details: 5 J/cm^2 UVA vs dark; for PIF 1 (photoirritancy factor, IC50(-UVA)/IC50(+UVA), earlier software): 1 = no measurable phototoxicity, >5 phototoxic potential; for MPE (mean photo effect): <0.1 nonphototoxin, 0.1 to <0.15 probable, >=0.15 clear phototoxin
[2] = system: Tricothecium Species; assay: IC50 and MIC on microplate agar gels (Example 40); assay type: cell-based; details: agar gel, 0.25-4.00 μg/ml, 30° C., 24 hours, NI = no detectable inhibition
Experimental: (§1) Each drug was dissolved in DMSO (1.0 mg/ml) as a stock solution and stored at −20° C. Just prior to use, each stock solution was thawed and diluted in DMSO to produce 6 different 100× concentrations. Potato dextrose agar was dissolved in distilled water (39 g/L) and sterilized at […] (250° F.) for 15 min. The agar solution was mixed with each drug (in a water bath at 60° C.) to make a series of final concentrations, i.e. 0.00, 0.25, 0.50, 1.00, 2.00, 4.00 μg/ml. The mixtures were then transferred to 24-well plates (1 ml/well). After the gel had formed, the fungus in PBS (spore count=1-5×10^4/ml) was inoculated by pipetting 10 μl onto each gel. The plates were incubated at 30° C. for different times, depending on the requirement of each species, e.g. 24 hours for Penicillium, Rhizopus, Tricothecium, Ulocladium, Absidia, Aspergilus, Caindida, Cunninghamella, 3 days for Scedosporium, and 5 days for Fonsecae and Phialophora.
(§2) “*” indicates better than or similar results to Amphotericin B. “NI” indicates no detectable inhibition.

[3] = system: Ulocladium Species; assay: IC50 and MIC on microplate agar gels (Example 40); assay type: cell-based; details: agar gel, 0.25-4.00 μg/ml, 30° C., 24 hours, NI = no detectable inhibition
Experimental: as §1, §2

[4] = system: Penicillium Species; assay: IC50 and MIC on microplate agar gels (Example 40); assay type: cell-based; details: agar gel, 0.25-4.00 μg/ml, 30° C., 24 hours, NI = no detectable inhibition
Experimental: as §1, §2

[5] = system: Scedosporium Apiospermum; assay: IC50 and MIC on microplate agar gels (Example 40); assay type: cell-based; details: agar gel, 0.25-4.00 μg/ml, 30° C., 3 days, NI = no detectable inhibition
Experimental: as §1, §2

[6] = system: eleven different species of fungi; details: cited from earlier work
[7] = system: Rhizopus sp.; assay: Fungal growth on SABHI agar containing CMT (Example 38); assay type: cell-based; details: 25 μg/ml, 30° C., growth grade
Experimental: (§3) The following fungi were inoculated onto potato dextrose agar (PDA) from stock cultures and incubated aerobically at 30° C.: Aspergillus [NT] 1022, Penicillium sp. (laboratory isolate), Candida albicans, ATCC 14053, and Rhizopus sp. […] The conidia were suspended in 0.9% saline and the turbidity was adjusted to match a 0.5 MacFarland standard (equivalent to approximately 1.5×10^8 cells). Candida albicans was suspended in saline and adjusted to 0.5 MacFarland in a similar manner. These suspensions were diluted 1:100 in sterile 0.9% saline. SABHI Agar (Difco) pH 7.0 was prepared in 100 ml amounts and sterilized at 121° C. for 15 min. […] SABHI Agar plates of each CMT and SAHBI agar without CMT using dimethylsulphoxide (DMSO) as a control were inoculated with 10 μl of conidia suspension of Aspergillus fumigatus, Penicillium sp. and Rhizopus sp. and 10 μl suspension of Candida albicans prepared as described above. The plates were then incubated aerobically for 24 hour and for 48 hours at 30° C. The results are set forth in Table 1 (24 hr. incubation) and Table 2 (48 hr. incubation). [table]

[8] = system: Candida albicans, ATCC 14053; assay: as above; assay type: cell-based; details: 25 μg/ml, 30° C., growth grade
Experimental: as §3

[9] = system: Penicillium sp. (laboratory isolate); assay: as above; assay type: cell-based; details: 25 μg/ml, 30° C., growth grade
Experimental: as §3

[10] = system: Aspergillus fumigatus ATCC 1022; assay: as above; assay type: cell-based; details: 25 μg/ml, 30° C., growth grade
Experimental: as §3

[11] = system: 11 different species of fungi; assay: Summary of Example 40 over the whole panel; assay type: cell-based; details: 11 tested fungi, up to 4.00 μg/ml
Experimental: as §1, §2

[12] = system: Fonsecae Species; assay: IC50 and MIC on microplate agar gels (Example 40); assay type: cell-based; details: 120 h; agar gel, 0.25-4.00 μg/ml, 30° C., 5 days; NI = no detectable inhibition; read-out: IC50
Experimental: as §1, §2

[13] = system: Candida Albicans; assay: IC50 and MIC on microplate agar gels (Example 40); assay type: cell-based; details: Candida albicans; agar gel, 0.25-4.00 μg/ml, 30° C., 24 hours; NI = no detectable inhibition; read-out: IC50
Experimental: as §1, §2

[14] = system: Rhizopus Species; assay: IC50 and MIC on microplate agar gels (Example 40); assay type: cell-based; details: Rhizopus; agar gel, 0.25-4.00 μg/ml, 30° C., 24 hours; NI = no detectable inhibition; read-out: IC50
Experimental: as §1, §2

[15] = system: Cunninghamella Species; assay: IC50 and MIC on microplate agar gels (Example 40); assay type: cell-based; details: Cunninghamella; agar gel, 0.25-4.00 μg/ml, 30° C., 24 hours; NI = no detectable inhibition; read-out: IC50
Experimental: as §1, §2

[16] = system: Aspergilus Fumigatus; assay: IC50 and MIC on microplate agar gels (Example 40); assay type: cell-based; details: agar gel, 0.25-4.00 μg/ml, 30° C., 24 hours; NI = no detectable inhibition; read-out: IC50
Experimental: as §1, §2

[17] = system: Phialophora Verrucosa; assay: IC50 and MIC on microplate agar gels (Example 40); assay type: cell-based; details: Phialophora verrucosa, 120 h; agar gel, 0.25-4.00 μg/ml, 30° C., 5 days; NI = no detectable inhibition; read-out: IC50
Experimental: as §1, §2

[18] = system: Absidia Species; assay: IC50 and MIC on microplate agar gels (Example 40); assay type: cell-based; details: Absidia; agar gel, 0.25-4.00 μg/ml, 30° C., 24 hours; NI = no detectable inhibition; read-out: IC50
Experimental: as §1, §2

Compound: 2-CONHCH2-pyrrolidin-1-yl-4-dedimthylaminodoxycycline [COL 807]
PIF 1 (photoirritancy factor, IC50(-UVA)/IC50(+UVA), earlier software) [1]: 40.4 | MPE (mean photo effect) [1]: 0.382

Compound: CC1c2cccc(O)c2C(=O)C2=C(O)C3(O)C(=O)C(C(N)=O)=C(O)CC3C(O)C21 (centres unmarked) [COL 8, 4-dedimethylaminodoxycycline]
IC50 [2]: 0.7 µg/mL (≈ 1.74 µM) | MIC [2]: 2.0 µg/mL (≈ 4.98 µM) | IC50 [3]: 2.0 µg/mL (≈ 4.98 µM) | MIC [3]: >4 µg/mL | IC50 [4]: 2.0 µg/mL (≈ 4.98 µM) | MIC [4]: >4 µg/mL | IC50 [5]: 2.0 µg/mL (≈ 4.98 µM) | MIC [5]: >4 µg/mL | Anti-fungal activity in vitro (Lu et al.) [6]: weak or no anti-fungal activity | Growth at 25 μg/ml compared to control at 24 hrs incubation [7]: 4 (Level of growth in the absence of anti-fungal agent (control).) | Growth at 25 μg/ml compared to control at 48 hours [7]: 4 (Level of growth in the absence of anti-fungal agent (control).) | Growth at 25 μg/ml compared to control at 24 hrs incubation [8]: 4 (Level of growth in the absence of anti-fungal agent (control).) | Growth at 25 μg/ml compared to control at 48 hours [8]: 4 (Level of growth in the absence of anti-fungal agent (control).) | Growth at 25 μg/ml compared to control at 24 hrs incubation [9]: 3 (25% reduction in growth of colonies compared to control.) | Growth at 25 μg/ml compared to control at 48 hours [9]: 4 (Level of growth in the absence of anti-fungal agent (control).) | Growth at 25 μg/ml compared to control at 48 hours [10]: 4 (Level of growth in the absence of anti-fungal agent (control).) | Antifungal activity over the panel (summary in words) [11]: had effects on some of these fungi

IC50 ([2]; read-out: IC50): 4 µg/mL (≈ 9 µM) | MIC ([2]; read-out: MIC): > 4 µg/mL | IC50 [12]: > 4 µg/mL | IC50 [13]: > 4 µg/mL | IC50 ([3]; read-out: IC50): > 4 µg/mL | IC50 ([4]; Penicillium, read-out: IC50): > 4 µg/mL | IC50 [14]: > 4 µg/mL | IC50 [15]: > 4 µg/mL | IC50 [16]: > 4 µg/mL | IC50 ([5]; Scedosporium apiospermum, 72 h, read-out: IC50): > 4 µg/mL | IC50 [17]: > 4 µg/mL | IC50 [18]: > 4 µg/mL
Compound: C[C@H]1c2cccc(O)c2C(=O)C2=C(O)[C@]3(O)C(=O)C(C(N)=O)=C(O)[C@@H](N(C)C)[C@@H]3[C@@H](O)[C@@H]21 [Doxycycline, 6α-deoxy-5-hydroxytetracycline, reference compound]

Compound: CN(C)c1cc([N+]#N)c(O)c2c1CC1CC3CC(O)=C(C(N)=O)C(=O)C3(O)C(O)=C1C2=O.O=S(=O)([O-])O (centres unmarked) [Example 4, 4-Dedimethylamino-7-dimethylamino-6-demethyl-6-deoxy-9-diazoniumtetracycline sulfate]
Growth at 25 μg/ml compared to control at 24 hrs incubation [7]: 4 (Level of growth in the absence of anti-fungal agent (control).) | Growth at 25 μg/ml compared to control at 48 hours [7]: 4 (Level of growth in the absence of anti-fungal agent (control).) | Growth at 25 μg/ml compared to control at 24 hrs incubation [8]: 1 (75% reduction in growth in colonies compared to control.) | Growth at 25 μg/ml compared to control at 48 hours [8]: 4 (Level of growth in the absence of anti-fungal agent (control).) | Growth at 25 μg/ml compared to control at 24 hrs incubation [9]: 3 (25% reduction in growth of colonies compared to control.) | Growth at 25 μg/ml compared to control at 48 hours [9]: 0 (complete inhibition of growth.) | Growth at 25 μg/ml compared to control at 24 hrs incubation ([10]; 24 hrs): 0 (complete inhibition of growth.) | Growth at 25 μg/ml compared to control at 48 hours [10]: 1 (75% reduction in growth in colonies compared to control.)

Compound: CN(C)[C@@H]1C(O)=C(C(N)=O)C(=O)[C@@]2(O)C(O)=C3C(=O)c4c(O)cccc4[C@@](C)(O)[C@H]3C[C@@H]12 [Tetracycline, reference compound]
PIF 1 (photoirritancy factor, IC50(-UVA)/IC50(+UVA), earlier software) [1]: 5.38 | MPE (mean photo effect) [1]: 0.340
